Test results reported in patent US10233186B2, “Inhibitors of activin receptor-like kinase” (BLUEPRINT MEDICINES CORPORATION, priority 2016, dated 2019).

These molecules were tested against T1, ALK2 R206H (GST-tagged mutant ALK2) (Homo sapiens, UniProt Q04771, R206H) (assay: ALK binding assay (LANTHASCREEN TR-FRET competitive binding, displacement of Kinase Tracer 178)). Details: ALK2 R206H, LANTHASCREEN TR-FRET competitive binding; read-out: Binding Assay (IC50).
T1 construct: purchased Carna Bioscience or ThermoFisher 09-148 or PV6232
T1 sequence (Q04771 21-509 R206H): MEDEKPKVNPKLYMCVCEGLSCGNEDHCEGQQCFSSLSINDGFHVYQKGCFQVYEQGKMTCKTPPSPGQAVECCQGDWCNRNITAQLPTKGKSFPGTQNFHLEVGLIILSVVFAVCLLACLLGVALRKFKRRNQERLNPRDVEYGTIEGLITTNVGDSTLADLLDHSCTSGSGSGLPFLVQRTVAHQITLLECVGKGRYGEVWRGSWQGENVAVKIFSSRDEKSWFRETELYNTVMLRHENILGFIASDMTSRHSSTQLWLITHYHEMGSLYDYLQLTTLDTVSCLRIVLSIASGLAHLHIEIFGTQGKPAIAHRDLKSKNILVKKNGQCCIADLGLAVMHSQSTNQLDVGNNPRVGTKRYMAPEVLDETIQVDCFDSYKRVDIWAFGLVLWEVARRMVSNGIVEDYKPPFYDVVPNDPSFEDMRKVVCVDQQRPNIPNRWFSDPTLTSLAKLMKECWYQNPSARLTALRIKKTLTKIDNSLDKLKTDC
Description: Binding assays were conducted using the LANTHASCREEN® technology (ThermoFisher Scientific). LANTHASCREEN® is a competitive binding, displacement assay where the assumed steady state occupancy of the binding site is measured using a time-resolved, fluorescence energy transfer (TR-FRET) readout between a fluorescent tracer and Europium (Eu)-tagged antibody specific for the kinase or expression tag (e.g. GST) of interest. Displacement of the tracer by a compound of the disclosure reduces, and is directly proportional to, the TR-FRET between the tracer and the antibody. Tracer was used at a concentration equal to or near to its Kd for the kinase.
In all cases, the kinase (2-5 nM) was mixed with Eu-tagged antibody (10 nM) mix and tracer (50 nM) were incubated with test compound titrations prepared in 100% DMSO (1% DMSO final) for 30 minutes at room temperature. All reagents and compounds were dissolved in Kinase Buffer A (ThermoFisher) to achieve the final concentration. […] This readout was normalized to 0% and 100% inhibited control wells, plotted against inhibitor concentration, and fitted to a 4-parameter log dose response curve.
Blank values in the table indicate that the particular compound was not tested in this assay.
For O=C(C1CC1)N1CCN(c2ccnn3cc(-c4ncc5n4CCNC5)cc23)CC1 [Compound 101], the IC50 was greater than 50 nM.
Work on O=C(C1CC1)N1CCN(c2ccnn3cc(-c4ccn(C5CCNC5)n4)cc23)CC1 (centres unmarked) [Compound 105] yielded an IC50 of 10 to 50 nM.
CN1CCn2c(cnc2-c2cc3c(N4CCN(C(=O)C5CC5)CC4)ccnn3c2)C1 [Compound 106] gave an IC50 greater than 50 nM.
O=C(C1CC1)N1CCN(c2ccnn3cc(-c4nc5c(s4)CCNC5)cc23)CC1 [Compound 108] gave an IC50 of 10 to 50 nM.
O=C(C1CC1)N1CCN(c2ccnn3cc(-c4ccc(Br)cc4)cc23)CC1 [Compound 119] was tested, and the IC50 was greater than 50 nM.
O=C(C1CC1)N1CCN(c2ccnn3cc(-c4ccc(NC5=NCCN5)cc4)cc23)CC1 [Compound 121, cyclopropyl(4-(6-(4-(4,5-dihydro-1H-imidazol-2-ylamino)phenyl)pyrrolo[1,2-b]pyridazin-4-yl)piperazin-1-yl)methanone] gave an IC50 of less than 10 nM.
For O=C(C1CC1)N1CCN(c2ccnn3cc(-c4ccc(C5CCOCC5)cc4)cc23)CC1 [Compound 126], the IC50 was 10 to 50 nM.
Work on CCN1CCN(c2ccc(-c3cc4c(N5CCN(C(C)=O)CC5)ccnn4c3)cc2)CC1 [Compound 136] yielded an IC50 of 10 to 50 nM.
CCN1CCC(n2ccc(-c3cc4c(N5CCN(C(=O)C6CC6)CC5)ccnn4c3)n2)C1 (centres unmarked) [Compound 138] was tested, and the IC50 was 10 to 50 nM.
CCN1CCC(n2cc(-c3cc4c(N5CCN(C(=O)C6CC6)CC5)ccnn4c3)cn2)C1 (centres unmarked) [Compound 139] showed an IC50 of less than 10 nM.
CCNC(=O)N1CCN(c2ccnn3cc(-c4ccc([C@H]5CNCCO5)cc4)cc23)CC1 [Compound 141] showed an IC50 of 10 to 50 nM.
O=C(C1CC1)N1CCN(c2ccnn3cc(-c4ccc(N5CCNCC5=O)cc4)cc23)CC1 [Compound 151] was tested, and the IC50 was greater than 50 nM.
For CCN1CCN(c2ccc(-c3cc4c(N5CCN6C(=O)CCC6C5)ccnn4c3)cc2)CC1 (centres unmarked) [Compound 157, 2-(6-(4-(4-ethylpiperazin-1-yl)phenyl)pyrrolo[1,2-b]pyridazin-4-yl)hexahydropyrrolo[1,2-a]pyrazin-6(7H)-one], the IC50 was greater than 50 nM.
With C[C@H]1CNC[C@@H](c2ccc(-c3cc4c(N5CCN(C(=O)C6CC6)CC5)ccnn4c3)cc2)O1 [Compound 165] the IC50 was 10 to 50 nM.
For O=C(C1CC1)N1CCN(c2ccnn3cc(-c4ccc(OCC5CCNC5)cc4)cc23)CC1 (centres unmarked) [Compound 166], the IC50 was less than 10 nM.
For C[C@@H]1CNC[C@@H](c2ccc(-c3cc4c(N5CCN(C(=O)C6CC6)CC5)ccnn4c3)cc2)O1 [Compound 168], the IC50 was 10 to 50 nM.
CCN1CC2CN(c3ccnn4cc(-c5ccc(N6CCNCC6)cc5)cc34)CCN2C1=O (centres unmarked) [Compound 171] showed an IC50 of 10 to 50 nM.
O=C(C1CC1)N1CCN(c2ccnn3cc(-c4ccc([C@H]5CCNC[C@H]5F)cc4)cc23)CC1 [Compound 175] gave an IC50 of 10 to 50 nM.
For O=C(C1CC1)N1CCN(c2ccnn3cc(-c4ccc([C@@H]5CCNC[C@@H]5F)cc4)cc23)CC1 [Compound 176], the IC50 was 10 to 50 nM.
For CCN1CCC(n2cc(-c3cc4c(N5CCN(C(=O)C6CC6)CC5)ccnn4c3)cn2)CC1 [Compound 183], the IC50 was 10 to 50 nM.
Cc1nc(C2CCNCC2)sc1-c1cc2c(N3CCN(C(=O)C4CC4)CC3)ccnn2c1 [Compound 190] showed an IC50 of less than 10 nM.
Molecule O=C(C1CC1)N1CCN(c2ccnn3cc(-c4ccc(N5CCC6(CNC6)C5)cc4)cc23)CC1 [Compound 198] has an IC50 of less than 10 nM.
CCN1CCC[C@@H](c2ccc(-c3cc4c(N5CCN(C(=O)C6CC6)CC5)ccnn4c3)cc2)C1 [Compound 206] was tested, and the IC50 was less than 10 nM.
CCN1CCC(c2ccc(-c3cc4c(N5CCN(C(=O)C(C)=O)CC5)ccnn4c3)cc2)CC1 [Compound 215] was tested, and the IC50 was 10 to 50 nM.
In the case of CCN1CCC1COc1ccc(-c2cc3c(N4CCN(C(=O)C5CC5)CC4)ccnn3c2)cc1 (centres unmarked) [Compound 218], the IC50 is reported as 10 to 50 nM.
CC(C)N1CC(Oc2ccc(-c3cc4c(N5CCN(C(=O)C6CC6)CC5)ccnn4c3)cc2)C1 [Compound 220] was tested, and the IC50 was less than 10 nM.
O=C(C1CC1)N1CCN(c2ccnn3cc(-c4c(F)cc(N5CCNCC5)cc4F)cc23)CC1 [Compound 239] gave an IC50 of less than 10 nM.
O=C(C1CC1)N1CCN(c2ccnn3cc(-c4ccc(N5CCC6(CCNC6)C5)cc4)cc23)CC1 (centres unmarked) [Compound 244] showed an IC50 of less than 10 nM.
Work on O=C(C1CC1)N1CCN(c2ccnn3cc(-c4ccc(OCCN5CCNCC5)cc4)cc23)CC1 [Compound 273, cyclopropyl(4-(6-(4-(2-(piperazin-1-yl)ethoxy)phenyl)pyrrolo[1,2-b]pyridazin-4-yl)piperazin-1-yl)methanone] yielded an IC50 of 10 to 50 nM.
CCN1CCN(c2ccc(-c3cc4c(N5CCN(C(=O)[C@@H]6C[C@@H]6F)CC5)ccnn4c3)cc2)CC1 [Compound 291] gave an IC50 of 10 to 50 nM.
CCN1CCN(c2ccc(-c3cc4c(N5CCN(C(=O)C6(F)CC6)CC5)ccnn4c3)cc2)CC1 [Compound 294] showed an IC50 of 10 to 50 nM.
For CC(C)N1CCC(c2ccc(-c3cc4c(N5CC6CC(C5)N6C(=O)C5CC5)ccnn4c3)cc2)CC1 [Compound 306], the IC50 was 10 to 50 nM.
With CCN1CCC(c2ccc(-c3cc4c(N5CCN(C(=O)C6(C(C)=O)CC6)CC5)ccnn4c3)cc2)C1 (centres unmarked) [Compound 311] the IC50 was greater than 50 nM.
Molecule CCNC(=O)N1CC2CC(C1)N2c1ccnn2cc(-c3ccc(C4CCN(C(C)C)CC4)cc3)cc12 [Compound 319] has an IC50 greater than 50 nM.
For CCN1C[C@H]2CN(c3ccnn4cc(-c5ccc(N6CCN(C(C)C)CC6)cc5)cc34)CCN2C1=O [Compound 331], the IC50 was 10 to 50 nM.
CCN(C)C(=O)N1CCN(c2ccnn3cc(-c4ccc(C5CCN(C(C)C)CC5)cc4)cc23)CC1 [Compound 342] gave an IC50 of 10 to 50 nM.
Molecule CCN1CCC(c2ccc(-c3cc4c(N5CCN(C(=O)C6(C(F)F)CC6)CC5)ccnn4c3)cc2)C1 (centres unmarked) [Compound 356] has an IC50 of 10 to 50 nM.
CCN1CCN(c2cc(F)c(-c3cc4c(N5CCN(C(=O)C6CC6)CC5)ccnn4c3)c(F)c2)CC1 [Compound 362] gave an IC50 of 10 to 50 nM.
For CCN1CCC(c2ccc(-c3cc4c(N5CCN(C(=O)C6CC6C6CCC6)CC5)ccnn4c3)cc2)C1 (centres unmarked) [Compound 372], the IC50 was less than 10 nM.
O=C(C1CC1)N1CCN(c2ccnn3cc(-c4ccc(N5CCNCC5C(F)(F)F)cc4)cc23)CC1 (centres unmarked) [Compound 374, cyclopropyl(4-(6-(4-(2-(trifluoromethyl)piperazin-1-yl)phenyl)pyrrolo[1,2-b]pyridazin-4-yl)piperazin-1-yl)methanone] was tested, and the IC50 was 10 to 50 nM.
For N#C[C@H]1CC[C@H](C(=O)N2CCN(c3ccnn4cc(-c5ccc(C6CNCC6F)cc5)cc34)CC2)CC1 (some centres unmarked) [Compound 378], the IC50 was less than 10 nM.
For CCN(CC)C(=O)N1CCN(c2ccnn3cc(-c4ccc(C5CCN(C(C)C)CC5)cc4)cc23)CC1 [Compound 392], the IC50 was 10 to 50 nM.
For CCN1CCN(c2ccc(-c3cc4c(N5CCN(C(=O)N6CC(OC)C6)CC5)ccnn4c3)cc2)CC1 [Compound 397], the IC50 was 10 to 50 nM.
CCN1CCN(c2ccc(-c3cc4c(N5CCN(C(=O)C6CC6)C(C(F)F)C5)ccnn4c3)cc2)CC1 (centres unmarked) [Compound 403, cyclopropyl(2-(difluoromethyl)-4-(6-(4-(4-ethylpiperazin-1-yl)phenyl)pyrrolo[1,2-b]pyridazin-4-yl)piperazin-1-yl)methanone] gave an IC50 greater than 50 nM.
With CC(C)N1CCC(c2ccc(-c3cc4c(N5CCN(C(=O)C6CC(C#N)C6)CC5)ccnn4c3)cc2)CC1 (centres unmarked) [Compound 405] the IC50 was less than 10 nM.
CCN1CCC(c2ccc(-c3cc4c(N5CCN(C(=O)C6(C(F)(F)F)CC6)CC5)ccnn4c3)cc2)C1 (centres unmarked) [Compound 410] gave an IC50 greater than 50 nM.
For CC(C)N1CCC(c2ccc(-c3cc4c(N5CCN(C(=O)C6(C7CC7)CC6)CC5)ccnn4c3)cc2)CC1 [Compound 414], the IC50 was 10 to 50 nM.
